Results as given in ChEMBL document CHEMBL3991601, “The target landscape of clinical kinase drugs” (Science, 2017).
Activity calls are given as the source filed them. For most assays here, no stated cut-off is given here; in the data, actives have a measured Kd and inactives only a lower limit.

Tests used:
[1] = target: Serine/threonine-protein kinase SIK3 (Homo sapiens, UniProt Q9Y2K2)
[2] = target: DNA topoisomerase 2-alpha (Homo sapiens, UniProt P11388)
[3] = target: Cyclin-dependent kinase 13 (Homo sapiens, UniProt Q14004)
[4] = target: MAP/microtubule affinity-regulating kinase 3 (Homo sapiens, UniProt P27448)
[5] = target: Rho-associated protein kinase 1 (Homo sapiens, UniProt Q13464)
[6] = target: Cyclin-dependent kinase 12 (Homo sapiens, UniProt Q9NYV4)
[7] = target: T1, Cyclin-G-associated kinase (Homo sapiens, UniProt O14976)
T1 sequence (O14976 whole entry): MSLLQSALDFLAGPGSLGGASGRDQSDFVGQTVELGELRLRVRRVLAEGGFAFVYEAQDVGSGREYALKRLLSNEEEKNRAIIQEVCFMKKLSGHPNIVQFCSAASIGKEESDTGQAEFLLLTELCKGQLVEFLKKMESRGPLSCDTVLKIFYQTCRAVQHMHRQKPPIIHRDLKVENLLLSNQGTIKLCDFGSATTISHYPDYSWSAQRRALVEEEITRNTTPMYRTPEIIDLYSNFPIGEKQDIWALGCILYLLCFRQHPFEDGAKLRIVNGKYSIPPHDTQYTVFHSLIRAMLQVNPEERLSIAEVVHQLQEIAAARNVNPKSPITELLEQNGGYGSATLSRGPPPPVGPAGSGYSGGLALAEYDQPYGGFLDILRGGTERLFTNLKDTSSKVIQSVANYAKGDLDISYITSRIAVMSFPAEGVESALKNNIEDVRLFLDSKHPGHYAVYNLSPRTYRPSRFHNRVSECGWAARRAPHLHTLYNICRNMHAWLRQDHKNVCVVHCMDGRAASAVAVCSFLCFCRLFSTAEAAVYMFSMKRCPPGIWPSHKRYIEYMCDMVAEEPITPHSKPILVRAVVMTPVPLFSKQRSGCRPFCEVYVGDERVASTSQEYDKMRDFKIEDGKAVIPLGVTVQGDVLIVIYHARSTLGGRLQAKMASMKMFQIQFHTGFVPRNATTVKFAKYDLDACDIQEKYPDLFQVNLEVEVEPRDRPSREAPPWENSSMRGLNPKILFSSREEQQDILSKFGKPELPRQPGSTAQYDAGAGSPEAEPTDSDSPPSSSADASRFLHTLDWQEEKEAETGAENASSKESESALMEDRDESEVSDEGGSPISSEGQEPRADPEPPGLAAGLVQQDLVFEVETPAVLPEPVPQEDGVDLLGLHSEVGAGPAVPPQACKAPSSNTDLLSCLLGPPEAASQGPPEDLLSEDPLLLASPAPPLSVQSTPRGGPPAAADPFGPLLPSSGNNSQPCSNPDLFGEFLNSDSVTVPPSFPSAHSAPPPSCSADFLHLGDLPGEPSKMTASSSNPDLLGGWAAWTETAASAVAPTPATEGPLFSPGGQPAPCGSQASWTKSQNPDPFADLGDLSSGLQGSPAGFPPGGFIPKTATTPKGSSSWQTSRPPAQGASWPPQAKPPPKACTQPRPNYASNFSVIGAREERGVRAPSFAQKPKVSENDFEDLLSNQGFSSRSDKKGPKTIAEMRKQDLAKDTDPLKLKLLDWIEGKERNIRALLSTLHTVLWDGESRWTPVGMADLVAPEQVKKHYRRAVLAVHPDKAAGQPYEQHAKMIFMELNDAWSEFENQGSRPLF

[8] = target: T2, Phosphatidylinositol 5-phosphate 4-kinase type-2 alpha (Homo sapiens, UniProt P48426)
T2 sequence (P48426 whole entry): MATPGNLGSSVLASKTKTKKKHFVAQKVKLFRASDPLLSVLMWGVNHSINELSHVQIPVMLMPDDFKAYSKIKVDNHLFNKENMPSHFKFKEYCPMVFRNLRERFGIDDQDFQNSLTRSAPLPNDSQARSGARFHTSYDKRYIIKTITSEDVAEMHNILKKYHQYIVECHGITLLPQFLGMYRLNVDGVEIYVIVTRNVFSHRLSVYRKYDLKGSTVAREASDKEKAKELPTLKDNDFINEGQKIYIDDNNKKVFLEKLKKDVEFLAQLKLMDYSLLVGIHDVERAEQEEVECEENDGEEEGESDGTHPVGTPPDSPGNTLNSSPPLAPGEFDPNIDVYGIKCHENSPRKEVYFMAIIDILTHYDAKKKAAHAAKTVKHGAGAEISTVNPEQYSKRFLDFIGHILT

[9] = target: Tyrosine-protein kinase Lyn (Homo sapiens, UniProt P07948)
[10] = target: T3, Delta(24)-sterol reductase (Homo sapiens, UniProt Q15392)
T3 sequence (Q15392 whole entry): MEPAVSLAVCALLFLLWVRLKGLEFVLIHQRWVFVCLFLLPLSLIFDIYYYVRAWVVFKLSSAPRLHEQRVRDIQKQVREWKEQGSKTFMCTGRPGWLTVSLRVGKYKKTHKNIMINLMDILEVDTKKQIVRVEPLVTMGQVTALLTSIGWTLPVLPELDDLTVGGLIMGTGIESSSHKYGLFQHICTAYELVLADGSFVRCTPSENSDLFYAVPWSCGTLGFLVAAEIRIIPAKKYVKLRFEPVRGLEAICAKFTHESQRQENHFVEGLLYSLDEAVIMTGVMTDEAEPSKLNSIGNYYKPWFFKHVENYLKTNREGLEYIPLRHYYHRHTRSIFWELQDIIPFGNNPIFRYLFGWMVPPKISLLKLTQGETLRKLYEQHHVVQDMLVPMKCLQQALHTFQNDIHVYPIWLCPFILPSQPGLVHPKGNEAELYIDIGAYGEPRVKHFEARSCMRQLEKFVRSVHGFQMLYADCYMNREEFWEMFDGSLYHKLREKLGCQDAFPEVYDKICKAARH

[11] = target: cAMP-dependent protein kinase catalytic subunit alpha (Homo sapiens, UniProt P17612)

Sequence of DNA topoisomerase 2-alpha (P11388 whole entry): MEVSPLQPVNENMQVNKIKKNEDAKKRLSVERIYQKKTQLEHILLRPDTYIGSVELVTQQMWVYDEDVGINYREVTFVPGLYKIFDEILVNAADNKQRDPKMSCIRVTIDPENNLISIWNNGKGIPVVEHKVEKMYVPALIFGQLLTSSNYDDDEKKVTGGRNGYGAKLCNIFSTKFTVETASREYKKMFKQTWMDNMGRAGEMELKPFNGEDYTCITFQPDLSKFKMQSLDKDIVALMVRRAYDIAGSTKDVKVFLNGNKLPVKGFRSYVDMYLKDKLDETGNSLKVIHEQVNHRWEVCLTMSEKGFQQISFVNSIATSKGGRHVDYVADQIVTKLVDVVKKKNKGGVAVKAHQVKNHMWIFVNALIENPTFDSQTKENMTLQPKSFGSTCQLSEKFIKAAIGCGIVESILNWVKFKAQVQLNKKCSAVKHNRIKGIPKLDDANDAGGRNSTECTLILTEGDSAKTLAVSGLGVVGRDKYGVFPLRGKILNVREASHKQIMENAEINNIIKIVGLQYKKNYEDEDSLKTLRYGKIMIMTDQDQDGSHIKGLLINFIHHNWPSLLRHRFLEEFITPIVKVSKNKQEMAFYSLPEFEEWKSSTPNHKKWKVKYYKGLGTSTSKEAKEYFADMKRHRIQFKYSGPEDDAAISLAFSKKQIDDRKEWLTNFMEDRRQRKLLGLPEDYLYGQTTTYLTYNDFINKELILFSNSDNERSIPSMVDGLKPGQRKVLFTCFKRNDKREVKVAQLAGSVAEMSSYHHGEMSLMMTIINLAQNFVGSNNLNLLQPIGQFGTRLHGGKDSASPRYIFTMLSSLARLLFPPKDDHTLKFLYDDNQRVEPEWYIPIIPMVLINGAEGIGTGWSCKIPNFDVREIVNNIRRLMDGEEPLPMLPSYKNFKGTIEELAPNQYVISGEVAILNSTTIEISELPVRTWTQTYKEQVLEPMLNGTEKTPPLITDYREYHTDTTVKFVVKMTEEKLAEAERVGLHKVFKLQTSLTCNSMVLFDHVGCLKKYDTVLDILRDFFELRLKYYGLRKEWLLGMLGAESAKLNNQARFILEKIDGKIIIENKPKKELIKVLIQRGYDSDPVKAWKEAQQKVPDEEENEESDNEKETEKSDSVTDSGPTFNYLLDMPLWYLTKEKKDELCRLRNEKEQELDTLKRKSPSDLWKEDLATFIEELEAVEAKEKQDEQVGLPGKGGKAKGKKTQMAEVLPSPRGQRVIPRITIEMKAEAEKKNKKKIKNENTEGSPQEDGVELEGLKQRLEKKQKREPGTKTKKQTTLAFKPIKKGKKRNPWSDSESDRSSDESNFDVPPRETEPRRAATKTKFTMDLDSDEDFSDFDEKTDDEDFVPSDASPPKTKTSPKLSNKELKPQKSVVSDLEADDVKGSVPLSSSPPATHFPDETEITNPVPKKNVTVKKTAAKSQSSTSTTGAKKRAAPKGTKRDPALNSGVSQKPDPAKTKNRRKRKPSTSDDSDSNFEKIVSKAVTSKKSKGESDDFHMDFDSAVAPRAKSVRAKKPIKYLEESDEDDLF
Sequence of Cyclin-dependent kinase 13 (Q14004 whole entry): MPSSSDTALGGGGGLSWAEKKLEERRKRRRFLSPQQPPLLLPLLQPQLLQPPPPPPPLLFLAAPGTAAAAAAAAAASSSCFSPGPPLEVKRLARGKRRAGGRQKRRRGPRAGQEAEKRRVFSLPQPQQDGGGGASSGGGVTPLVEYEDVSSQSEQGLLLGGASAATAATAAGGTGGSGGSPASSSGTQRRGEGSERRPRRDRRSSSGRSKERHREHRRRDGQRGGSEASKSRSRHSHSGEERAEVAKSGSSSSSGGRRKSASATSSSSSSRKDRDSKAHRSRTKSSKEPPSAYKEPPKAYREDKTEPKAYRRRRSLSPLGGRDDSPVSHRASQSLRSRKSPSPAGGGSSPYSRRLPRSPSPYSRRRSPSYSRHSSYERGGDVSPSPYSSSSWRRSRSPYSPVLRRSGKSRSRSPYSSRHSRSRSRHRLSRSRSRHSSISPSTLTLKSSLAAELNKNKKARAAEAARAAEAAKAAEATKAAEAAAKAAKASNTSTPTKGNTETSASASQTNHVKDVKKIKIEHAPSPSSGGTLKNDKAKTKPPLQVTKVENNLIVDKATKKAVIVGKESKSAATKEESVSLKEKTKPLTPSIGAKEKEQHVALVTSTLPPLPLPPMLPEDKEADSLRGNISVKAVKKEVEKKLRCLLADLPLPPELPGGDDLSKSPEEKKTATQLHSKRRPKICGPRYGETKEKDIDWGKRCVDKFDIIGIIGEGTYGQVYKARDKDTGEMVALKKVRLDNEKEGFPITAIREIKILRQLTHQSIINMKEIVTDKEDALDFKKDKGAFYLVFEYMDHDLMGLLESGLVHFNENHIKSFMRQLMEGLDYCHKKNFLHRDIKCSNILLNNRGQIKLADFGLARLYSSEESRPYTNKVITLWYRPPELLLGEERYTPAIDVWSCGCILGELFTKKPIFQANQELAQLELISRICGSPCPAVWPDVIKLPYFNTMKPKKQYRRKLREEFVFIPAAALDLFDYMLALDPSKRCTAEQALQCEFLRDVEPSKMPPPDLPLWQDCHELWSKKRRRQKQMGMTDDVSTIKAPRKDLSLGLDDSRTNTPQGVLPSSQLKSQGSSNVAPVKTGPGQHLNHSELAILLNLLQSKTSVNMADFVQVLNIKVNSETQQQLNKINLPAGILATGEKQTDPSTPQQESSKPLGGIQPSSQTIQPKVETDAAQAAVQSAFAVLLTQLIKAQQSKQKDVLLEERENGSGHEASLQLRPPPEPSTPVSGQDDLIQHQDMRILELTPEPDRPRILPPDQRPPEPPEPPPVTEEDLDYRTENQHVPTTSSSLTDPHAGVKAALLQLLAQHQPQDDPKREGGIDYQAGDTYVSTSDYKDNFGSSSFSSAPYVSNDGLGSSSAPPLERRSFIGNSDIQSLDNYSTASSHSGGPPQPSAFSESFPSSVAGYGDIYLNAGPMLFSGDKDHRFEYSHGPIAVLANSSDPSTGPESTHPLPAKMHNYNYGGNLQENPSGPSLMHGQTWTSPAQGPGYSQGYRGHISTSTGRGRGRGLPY
Sequence of Tyrosine-protein kinase Lyn (P07948 whole entry): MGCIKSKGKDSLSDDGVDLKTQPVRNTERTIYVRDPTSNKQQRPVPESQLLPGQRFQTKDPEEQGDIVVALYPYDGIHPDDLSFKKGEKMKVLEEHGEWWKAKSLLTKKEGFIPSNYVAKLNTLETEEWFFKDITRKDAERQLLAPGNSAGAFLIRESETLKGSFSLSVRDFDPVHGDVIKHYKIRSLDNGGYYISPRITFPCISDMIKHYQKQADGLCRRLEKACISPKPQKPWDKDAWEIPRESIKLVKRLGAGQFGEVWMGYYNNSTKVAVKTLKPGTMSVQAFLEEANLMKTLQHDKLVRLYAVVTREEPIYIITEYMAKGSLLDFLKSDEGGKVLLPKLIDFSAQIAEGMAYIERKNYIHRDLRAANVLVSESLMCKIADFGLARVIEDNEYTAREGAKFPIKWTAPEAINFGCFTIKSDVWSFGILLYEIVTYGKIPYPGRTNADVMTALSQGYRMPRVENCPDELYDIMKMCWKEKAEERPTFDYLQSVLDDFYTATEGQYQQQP
Sequence of Serine/threonine-protein kinase SIK3 (Q9Y2K2 whole entry): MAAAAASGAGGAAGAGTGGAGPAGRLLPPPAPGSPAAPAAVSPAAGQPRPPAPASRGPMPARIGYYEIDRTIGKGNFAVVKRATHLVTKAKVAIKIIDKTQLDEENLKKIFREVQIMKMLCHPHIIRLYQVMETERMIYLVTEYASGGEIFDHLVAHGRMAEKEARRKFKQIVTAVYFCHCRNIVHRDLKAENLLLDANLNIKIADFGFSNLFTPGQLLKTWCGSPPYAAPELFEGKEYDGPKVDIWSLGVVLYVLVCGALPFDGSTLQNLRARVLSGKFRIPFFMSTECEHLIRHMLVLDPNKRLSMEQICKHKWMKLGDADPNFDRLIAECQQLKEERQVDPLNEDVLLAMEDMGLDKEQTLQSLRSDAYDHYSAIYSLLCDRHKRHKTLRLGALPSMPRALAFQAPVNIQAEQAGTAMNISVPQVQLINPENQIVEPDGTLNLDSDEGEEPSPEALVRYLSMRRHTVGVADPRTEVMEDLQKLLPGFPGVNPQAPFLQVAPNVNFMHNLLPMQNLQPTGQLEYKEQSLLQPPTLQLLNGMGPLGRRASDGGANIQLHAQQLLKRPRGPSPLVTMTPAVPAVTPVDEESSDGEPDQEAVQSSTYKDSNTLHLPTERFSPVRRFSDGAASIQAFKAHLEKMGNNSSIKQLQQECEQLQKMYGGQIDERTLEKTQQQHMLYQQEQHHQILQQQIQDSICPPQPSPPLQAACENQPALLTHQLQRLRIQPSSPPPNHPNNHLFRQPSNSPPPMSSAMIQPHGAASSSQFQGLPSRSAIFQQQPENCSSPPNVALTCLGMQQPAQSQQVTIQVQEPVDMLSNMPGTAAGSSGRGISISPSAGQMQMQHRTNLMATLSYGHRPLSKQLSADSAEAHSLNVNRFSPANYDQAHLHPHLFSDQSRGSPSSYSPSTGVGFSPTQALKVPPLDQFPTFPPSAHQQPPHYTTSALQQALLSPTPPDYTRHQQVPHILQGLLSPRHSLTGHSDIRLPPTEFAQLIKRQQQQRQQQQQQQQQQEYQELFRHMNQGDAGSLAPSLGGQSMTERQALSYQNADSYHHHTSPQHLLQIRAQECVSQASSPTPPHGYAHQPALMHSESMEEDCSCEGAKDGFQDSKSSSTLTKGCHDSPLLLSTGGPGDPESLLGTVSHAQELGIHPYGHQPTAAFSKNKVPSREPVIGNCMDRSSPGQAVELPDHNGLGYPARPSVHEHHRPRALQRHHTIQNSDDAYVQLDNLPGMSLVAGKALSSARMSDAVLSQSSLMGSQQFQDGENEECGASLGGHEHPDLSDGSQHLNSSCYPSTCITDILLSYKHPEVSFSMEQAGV

| Compound | Kd [1] | Kd [2] | Kd [3] | Kd [4] | Kd [5] | Kd [6] | Kd [7] | Kd [8] | Kd [9] | Kd [10] | Kd [11] |
| --- | --- | --- | --- | --- | --- | --- | --- | --- | --- | --- | --- |
| CCNC(=O)C#Cc1ccc2c(c1)NC(=O)/C2=C(\Nc1ccc(CN(C)C)cc1)c1ccccc1 | > 30 µM (inactive) | > 30 µM (inactive) | > 30 µM (inactive) | > 30 µM (inactive) | > 30 µM (inactive) | > 30 µM (inactive) | > 30 µM (inactive) | > 30 µM (inactive) | 0.097 µM (active) | > 30 µM (inactive) | > 30 µM (inactive) |
| C=CC(=O)N1CCC[C@H](n2c(=O)n(-c3ccc(Oc4ccccc4)cc3)c3c(N)ncnc32)C1 | > 30 µM (inactive) | > 30 µM (inactive) | > 30 µM (inactive) | > 30 µM (inactive) | > 30 µM (inactive) | > 30 µM (inactive) | > 30 µM (inactive) | > 30 µM (inactive) | 0.006 µM | > 30 µM (inactive) | > 30 µM (inactive) |
| Cc1nc2cc(-c3nn(C(C)C)c4ncnc(N)c34)ccc2o1 | > 30 µM (inactive) | > 30 µM (inactive) | > 30 µM (inactive) | > 30 µM (inactive) | > 30 µM (inactive) | > 30 µM (inactive) | > 30 µM (inactive) | > 30 µM (inactive) | > 30 µM (inactive) | > 30 µM (inactive) | > 30 µM (inactive) |
| Cc1csc(-c2nnc(Nc3ccc(Oc4ncccc4-c4ccnc(N)n4)cc3)c3ccccc23)c1 [AMG-900] | > 30 µM (inactive) | > 30 µM (inactive) | 2.51 µM | > 30 µM (inactive) | > 30 µM (inactive) | 2.98 µM | > 30 µM (inactive) | > 30 µM (inactive) | > 30 µM (inactive) | > 30 µM (inactive) | > 30 µM (inactive) |
| C=CC(=O)Nc1cc2c(Nc3ccc(F)c(Cl)c3)ncnc2cc1C#CC(C)(C)N1CCN(C)CC1 [AV-412 FREE BASE] | > 30 µM (inactive) | > 30 µM (inactive) | > 30 µM (inactive) | > 30 µM (inactive) | > 30 µM (inactive) | > 30 µM (inactive) | > 30 µM (inactive) | > 30 µM (inactive) | > 30 µM (inactive) | > 30 µM (inactive) | > 30 µM (inactive) |
| Cc1cc(C(=O)NOCCO)c(Nc2ccc(I)cc2F)n(C)c1=O [AZD-8330] | > 30 µM (inactive) | > 30 µM (inactive) | > 30 µM (inactive) | > 30 µM (inactive) | > 30 µM (inactive) | > 30 µM (inactive) | > 30 µM (inactive) | > 30 µM (inactive) | > 30 µM (inactive) | > 30 µM (inactive) | > 30 µM (inactive) |
| Cn1cnc2c(F)c(Nc3ccc(Br)cc3F)c(C(=O)NOCCO)cc21 [BINIMETINIB] | > 30 µM (inactive) | > 30 µM (inactive) | > 30 µM (inactive) | > 30 µM (inactive) | > 30 µM (inactive) | > 30 µM (inactive) | > 30 µM (inactive) | > 30 µM (inactive) | > 30 µM (inactive) | > 30 µM (inactive) | > 30 µM (inactive) |
| COc1cc2ncnc(Oc3cccc(NC(=O)Nc4cc(C(C)(C)C(F)(F)F)on4)c3)c2cc1OC [CEP-32496] | > 30 µM (inactive) | > 30 µM (inactive) | > 30 µM (inactive) | > 30 µM (inactive) | > 30 µM (inactive) | > 30 µM (inactive) | > 30 µM (inactive) | > 30 µM (inactive) | 0.771 µM (active) | > 30 µM (inactive) | > 30 µM (inactive) |
| Cc1cc(Nc2ncc(Cl)c(Nc3ccccc3S(=O)(=O)C(C)C)n2)c(OC(C)C)cc1C1CCNCC1 [CERITINIB] | > 30 µM (inactive) | > 30 µM (inactive) | > 30 µM (inactive) | > 30 µM (inactive) | > 30 µM (inactive) | > 30 µM (inactive) | > 30 µM (inactive) | > 30 µM (inactive) | > 30 µM (inactive) | > 30 µM (inactive) | > 30 µM (inactive) |
| COCC(=O)NC/C=C/c1ccc2ncnc(Nc3ccc(Oc4ccc(C)nc4)c(C)c3)c2c1 [CP-724714] | > 30 µM (inactive) | > 30 µM (inactive) | > 30 µM (inactive) | > 30 µM (inactive) | > 30 µM (inactive) | > 30 µM (inactive) | > 30 µM (inactive) | > 30 µM (inactive) | > 30 µM (inactive) | > 30 µM (inactive) | > 30 µM (inactive) |
| C#Cc1cccc(Nc2ncnc3cc(OC)c(OCCCCCCC(=O)NO)cc23)c1 [CUDC-101] | > 30 µM (inactive) | > 30 µM (inactive) | > 30 µM (inactive) | > 30 µM (inactive) | > 30 µM (inactive) | > 30 µM (inactive) | 0.482 µM (active) | > 30 µM (inactive) | > 30 µM (inactive) | > 30 µM (inactive) | > 30 µM (inactive) |
| Cc1cccc(-c2nn3c(c2-c2ccnc4ccc(C(N)=O)cc24)CCC3)n1 [GALUNISERTIB] | > 30 µM (inactive) | > 30 µM (inactive) | > 30 µM (inactive) | > 30 µM (inactive) | > 30 µM (inactive) | > 30 µM (inactive) | 0.495 µM (active) | > 30 µM (inactive) | > 30 µM (inactive) | > 30 µM (inactive) | > 30 µM (inactive) |
| COc1ccc(S(=O)(=O)N(C(C)=O)c2ccccc2/C=C/c2cc[n+]([O-])cc2)cc1 [HMN-214] | > 30 µM (inactive) | > 30 µM (inactive) | > 30 µM (inactive) | > 30 µM (inactive) | > 30 µM (inactive) | > 30 µM (inactive) | > 30 µM (inactive) | > 30 µM (inactive) | > 30 µM (inactive) | > 30 µM (inactive) | > 30 µM (inactive) |
| NC1(c2ccc(-c3nc4ccn5c(=O)[nH]nc5c4cc3-c3ccccc3)cc2)CCC1 [MK-2206] | > 30 µM (inactive) | > 30 µM (inactive) | > 30 µM (inactive) | > 30 µM (inactive) | > 30 µM (inactive) | > 30 µM (inactive) | > 30 µM (inactive) | > 30 µM (inactive) | > 30 µM (inactive) | > 30 µM (inactive) | > 30 µM (inactive) |
